According to patent US10265331B2, “Prevention or treatment agent for hepatic fibrosis” (priority 2012, dated 2019):

What was measured:
[1] = system: chronic hepatitis C model mouse (Cre/loxP/HCV-MxCre Tg mouse); assay: Treatment effect on hepatic fibrosis by histological staining of liver of model mouse; type: in vivo
Description: The expression of Cre in the liver of these mice was induced by intraperitoneal injection of polyinosinic-polycytidylic acid [Poly(I:C)] (purchased from GE Healthcare UK Ltd. (Buckinghamshire, England)). That is, 300 μL of poly(I:C) solution (1 mg/mL phosphate buffered saline [PBS]) was intraperitoneally injected, after lapse of 2 months from birth, […] 3 times at 48 hr intervals. HCV gene expression can be induced in almost all hepatocytes by performing this poly(I:C) administration operation once.
A CBP/β-catenin inhibitor was intraperitoneally administered to the CN2-29^(+/−)/MxCre^(+/−) mouse obtained in Example 1, and whether the CBP/β-catenin inhibitor has a treatment effect on hepatic fibrosis was examined by histological staining of the hepatic tissues collected from the model mouse.
A CBP/β-catenin inhibitor was dissolved in commercially available PBS (pH 7.6), and the pH was adjusted again to 7.6 with an aqueous sodium hydroxide solution to give a 40 mg/ml CBP/β-catenin inhibitor solution. This solution (250 μl) was filled in an osmotic pressure pump (ALZET mini-osmotic pump model 2006) and embedded subcutaneously in the back of mouse, whereby a CBP/β-catenin inhibitor was administered at 0.15 μl/hr for 42 days in a sustained manner. For the control group, commercially available PBS (pH7.6) was similarly filled in an osmotic pressure pump and administered as a vehicle by embedding same subcutaneously in the back of mouse.
Autopsy was performed on day 42 from the administration of the CBP/β-catenin inhibitory compound of (1), the liver was removed and histologically searched.
As for staining, the whole image of the tissue was stained and observed by hematoxylin-eosin staining (HE staining), and fiber was stained and observed by silver staining and Azan staining.
A tissue sample was fixed with 4% para-formaldehyde in PBS, embedded in paraffin and sliced (thickness 4 μm). The obtained section was subjected to hematoxylin-eosin staining (HE), silver staining and Azan staining.
Hematoxylin-eosin staining was performed according to the method described in a handbook of histopathological staining (Kiyoyuki Takahashi, Igaku-Shoin).
Silver staining was performed according to the method described in a handbook of histopathological staining (Kiyoyuki Takahashi, Igaku-Shoin).
Azan staining was performed according to the method described in a handbook of histopathological staining (Kiyoyuki Takahashi, Igaku-Shoin).

CBP/β-catenin = CBP/β-catenin (Homo sapiens, UniProt Q92793); conditions: reporter assay of WO 2009/148192; cited from earlier work
Chain of CBP/β-catenin (Q92793 whole entry): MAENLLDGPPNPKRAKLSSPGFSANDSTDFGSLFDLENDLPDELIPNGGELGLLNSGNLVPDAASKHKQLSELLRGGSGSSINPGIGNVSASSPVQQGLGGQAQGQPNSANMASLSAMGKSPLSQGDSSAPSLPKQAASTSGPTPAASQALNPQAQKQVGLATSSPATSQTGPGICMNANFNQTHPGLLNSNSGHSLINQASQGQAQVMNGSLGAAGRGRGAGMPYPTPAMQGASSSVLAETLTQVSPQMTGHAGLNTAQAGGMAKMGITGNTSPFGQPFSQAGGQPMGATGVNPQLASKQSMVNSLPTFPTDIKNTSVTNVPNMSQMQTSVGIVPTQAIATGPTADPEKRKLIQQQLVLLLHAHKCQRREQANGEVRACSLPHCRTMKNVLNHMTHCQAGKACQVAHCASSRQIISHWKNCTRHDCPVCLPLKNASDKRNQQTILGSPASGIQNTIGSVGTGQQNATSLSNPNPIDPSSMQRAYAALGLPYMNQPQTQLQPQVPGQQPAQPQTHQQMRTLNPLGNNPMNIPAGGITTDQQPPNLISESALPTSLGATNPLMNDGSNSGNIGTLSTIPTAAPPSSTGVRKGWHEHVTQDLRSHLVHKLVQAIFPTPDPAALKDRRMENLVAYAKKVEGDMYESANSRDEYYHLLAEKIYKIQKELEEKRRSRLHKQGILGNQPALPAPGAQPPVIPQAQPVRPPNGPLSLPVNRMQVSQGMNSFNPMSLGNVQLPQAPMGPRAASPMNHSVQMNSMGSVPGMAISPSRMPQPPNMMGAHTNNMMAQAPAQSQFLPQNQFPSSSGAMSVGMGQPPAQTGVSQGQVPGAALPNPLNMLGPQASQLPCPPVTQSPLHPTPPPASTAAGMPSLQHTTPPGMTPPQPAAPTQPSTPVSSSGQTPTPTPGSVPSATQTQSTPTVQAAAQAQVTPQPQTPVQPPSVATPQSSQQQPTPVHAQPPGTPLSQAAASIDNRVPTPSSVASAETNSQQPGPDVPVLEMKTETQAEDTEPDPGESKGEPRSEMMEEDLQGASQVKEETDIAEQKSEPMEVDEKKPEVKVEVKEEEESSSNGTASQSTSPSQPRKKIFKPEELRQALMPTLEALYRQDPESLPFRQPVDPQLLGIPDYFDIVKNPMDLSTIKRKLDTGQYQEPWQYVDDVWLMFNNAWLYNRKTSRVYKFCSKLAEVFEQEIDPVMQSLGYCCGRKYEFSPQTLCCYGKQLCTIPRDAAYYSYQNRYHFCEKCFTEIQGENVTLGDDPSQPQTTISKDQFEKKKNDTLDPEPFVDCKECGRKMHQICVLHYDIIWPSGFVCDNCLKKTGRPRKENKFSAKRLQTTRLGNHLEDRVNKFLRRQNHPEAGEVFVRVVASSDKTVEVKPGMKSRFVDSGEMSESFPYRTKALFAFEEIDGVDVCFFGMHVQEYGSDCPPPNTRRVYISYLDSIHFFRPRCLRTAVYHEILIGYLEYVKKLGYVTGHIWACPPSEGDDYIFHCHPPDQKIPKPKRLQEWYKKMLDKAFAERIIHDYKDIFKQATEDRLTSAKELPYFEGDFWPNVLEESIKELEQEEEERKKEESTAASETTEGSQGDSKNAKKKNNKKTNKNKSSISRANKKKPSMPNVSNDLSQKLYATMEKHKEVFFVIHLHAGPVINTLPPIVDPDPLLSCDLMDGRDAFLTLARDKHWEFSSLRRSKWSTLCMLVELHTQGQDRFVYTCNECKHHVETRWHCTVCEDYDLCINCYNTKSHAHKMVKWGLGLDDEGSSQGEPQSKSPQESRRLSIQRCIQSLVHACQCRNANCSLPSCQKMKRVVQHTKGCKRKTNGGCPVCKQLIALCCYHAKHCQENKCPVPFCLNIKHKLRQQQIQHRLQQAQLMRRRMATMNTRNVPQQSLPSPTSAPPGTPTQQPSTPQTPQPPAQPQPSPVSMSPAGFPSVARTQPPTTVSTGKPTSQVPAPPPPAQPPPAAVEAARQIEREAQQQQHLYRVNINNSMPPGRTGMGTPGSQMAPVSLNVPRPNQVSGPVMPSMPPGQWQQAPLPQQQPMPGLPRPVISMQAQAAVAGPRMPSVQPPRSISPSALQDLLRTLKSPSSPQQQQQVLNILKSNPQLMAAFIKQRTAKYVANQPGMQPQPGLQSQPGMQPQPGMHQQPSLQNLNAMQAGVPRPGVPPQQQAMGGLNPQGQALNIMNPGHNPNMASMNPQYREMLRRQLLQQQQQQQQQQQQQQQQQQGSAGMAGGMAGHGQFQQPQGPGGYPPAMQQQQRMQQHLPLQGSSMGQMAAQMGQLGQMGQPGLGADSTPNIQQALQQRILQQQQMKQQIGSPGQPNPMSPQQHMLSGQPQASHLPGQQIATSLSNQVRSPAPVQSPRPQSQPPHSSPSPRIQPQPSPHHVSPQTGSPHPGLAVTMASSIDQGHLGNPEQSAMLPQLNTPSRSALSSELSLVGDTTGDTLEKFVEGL

## C[C@H]1C2N(C(=O)CN(C)N2C(=O)NCc2ccccc2)[C@@H](Cc2ccc(OP(=O)(O)O)cc2)C(=O)N1Cc1cccc2cccnc12 (stereo partly drawn) [CBP/β-catenin inhibitory compound, 4-(((6S,9S)-1-(benzylcarbamoyl)-2,9-dimethyl-4,7-dioxo-8-(quinolin-8-ylmethyl)octahydro-1H-pyrazino[2,1-c][1,2,4]triazin-6-yl)methyl)phenyl dihydrogen phosphate]
[1]; CN2-29(+/-)/MxCre(+/-) mouse, 40 mg/ml solution by subcutaneous osmotic pump, 0.15 μl/hr for 42 days, HE, silver and Azan staining (FIG. 2-4)
  hepatic lobule structure (defibrosing action): improved hepatic lobule structure
[1]; administration for 42 days, FIG. 2
  hepatocyte cord structure of liver tissue, hematoxylin-eosin staining: normalized to take a cord-like form
[1]; administration for 42 days, FIG. 3
  staining of reticular fiber, silver staining: weakened and normalized
[1]; administration for 42 days, FIG. 4
  staining of collagenous fibers, Azan staining: normalized
CBP/β-catenin
  CBP/β-catenin inhibitory action: confirmed
